Laboratory results as given in patent US20100048530A1, “New 2-Azetidinone Derivatives As Cholesterol Absorption Inhibitors For The Treatment Of Hyperlipidaemic Conditions” (ASTRAZENECA AB, priority 2005, published 2010).

Tested on: C57BL/6 female mice
Test: In vivo testing of cholesterol absorption inhibitors (A)
Settings: 0.2 μmol/kg, gavage, procedure A
Protocol: In Vivo Testing of Cholesterol Absorption Inhibitors (A)
C57BL/6 female mice were maintained on regular chow diet and housed in individual cages to collect faeces. Mice were fasted for 3 hours and then gavaged with vehicle or compound. Half an hour later the mice were gavaged with radiolabelled cholesterol. Six hours after the ^14C-cholesterol gavage blood samples were taken via the tail and plasma prepared to determine how much cholesterol were absorbed. 24 hours after the gavage of ^14C-cholesterol the mice were bled and plasma were prepared for analysis. Faeces were collected for 24 hours to assess absorption efficiency.

O=C(O)CNC(=O)[C@@H](CC1CCCCC1)NC(=O)CNC(=O)COc1ccc([C@@H]2[C@@H](SCC(O)c3ccc4c(c3)OCCO4)C(=O)N2c2ccc(F)cc2)cc1 (stereo partly drawn) [Example 1, N-({4-[(2R,3R)-3-{[2-(2,3-dihydro-1,4-benzodioxin-6-yl)-2-hydroxyethyl]thio}-1-(4-fluorophenyl)-4-oxoazetidin-2-yl]phenoxy}acetyl)glycyl-3-cyclohexyl-D-alanylglycine]
inhibition of 14C-cholesterol absorption: 43%
